Results published in patent publication US11667602B2, “Compounds and their use” (AstraZeneca AB, priority 2020, dated 2023).
pEC50: −log10 of the molar value. Values after ≈ are worked out from the molar mass of the structure shown.

Key:
[1] = cited from earlier work
human RXFP1 = molecular target: T1, human RXFP1 (Homo sapiens, UniProt Q9HBX9); assay: RXFP1 Hu cAMP (Test A); assay type: cell-based; parameters: expressed in transfected cells; host or cells: Jump-In T-REx CHO-K1 cells (ThermoFisher), induced with 10 ng/ml doxycycline for 24 h; settings: RXFP1 Hu cAMP; for pEC50: read-out: Test A EC50
T1 sequence (Q9HBX9 1-757): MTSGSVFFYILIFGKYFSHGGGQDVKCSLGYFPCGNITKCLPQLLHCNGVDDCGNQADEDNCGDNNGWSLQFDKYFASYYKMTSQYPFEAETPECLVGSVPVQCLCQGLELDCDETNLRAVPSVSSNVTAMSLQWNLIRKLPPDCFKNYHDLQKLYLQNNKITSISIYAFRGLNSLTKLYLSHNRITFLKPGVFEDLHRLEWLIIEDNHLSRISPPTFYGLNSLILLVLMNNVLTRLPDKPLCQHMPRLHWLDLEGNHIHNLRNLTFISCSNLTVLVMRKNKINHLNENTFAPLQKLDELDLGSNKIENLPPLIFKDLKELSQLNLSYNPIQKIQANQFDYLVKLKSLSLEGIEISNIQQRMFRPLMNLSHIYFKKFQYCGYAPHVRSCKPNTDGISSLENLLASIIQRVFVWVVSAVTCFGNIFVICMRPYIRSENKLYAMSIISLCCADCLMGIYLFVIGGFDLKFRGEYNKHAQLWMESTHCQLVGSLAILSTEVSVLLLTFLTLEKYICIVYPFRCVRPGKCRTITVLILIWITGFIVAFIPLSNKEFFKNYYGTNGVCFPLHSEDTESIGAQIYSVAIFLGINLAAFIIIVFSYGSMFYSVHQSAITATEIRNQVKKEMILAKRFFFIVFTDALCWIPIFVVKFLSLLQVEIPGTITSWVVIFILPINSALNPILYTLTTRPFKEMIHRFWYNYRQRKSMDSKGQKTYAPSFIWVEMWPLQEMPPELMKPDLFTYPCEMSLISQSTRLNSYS
How it was run: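 Doxycycline-induced (10 ng/ml, 24 h) CHO-K1 cells stably expressing human RXFP1; cAMP read by competitive HTRF after 2 h at room temperature, with 0.5 mM IBMX final.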

[2] = Human Plasma Protein Binding (Test B); assay type: in vitro ADME; settings: fraction unbound (fu)
How it was run: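 Human plasma protein binding run per the published Wernevik et al. (2020) integrated DMPK panel protocol. Values are fraction unbound (fu, % free); repeat runs averaged arithmetically.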

[3] = Human Liver Microsomal Stability (Test C); assay type: in vitro ADME; settings: for microsomal CLint: human, liver microsomes
How it was run: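 Human liver microsome incubation per the Wernevik et al. integrated DMPK panel protocol. Intrinsic clearance reported as CLint in μl/min/mg protein, averaged arithmetically over repeat runs.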

Solubility (Test F) = assay type: physicochemical; settings: arithmetic mean if run multiple times
Description: The assay was conducted according to the Solubility Assay described in pages 164-167 of Wernevik, J. et al., “A Fully Integrated Assay Panel for Early Drug Metabolism and Pharmacokinetics Profiling”, Assay and Drug Development Technologies, 2020, 18(4), 157-179. Data are reported in Table 36 as solubility ([…]. Where the assay was run multiple times for the same compound, the arithmetic mean is reported.

[4] = Rat Hepatocyte Stability (Test E); assay type: in vitro ADME; settings: geometric mean if run multiple times; for hepatocyte CLint: rat, hepatocytes
How it was run: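 Run per the published AstraZeneca-type rat hepatocyte stability protocol (Wernevik et al. panel). Values are mean intrinsic clearance, Clint in μl/min/10^6 cells; geometric mean used for repeated runs.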

[5] = Human Hepatocyte Stability (Test D); assay type: in vitro ADME; settings: geometric mean if run multiple times; for hepatocyte CLint at 1 µM: human, cryopreserved pooled human hepatocytes (LiverPool 10-Donor)
How it was run: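 Pooled 10-donor cryopreserved human hepatocytes (≥80% viable) in L-15 medium at 0.25×10^6 cells per 0.25 mL well. Compound added from 100 μM acetonitrile solution; incubated at 37 °C with shaking, acetonitrile-quenched, LC-MS analysed. Clint (μL/min/10^6 cells) from ln % parent vs time slope; geometric mean of repeat runs.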

Row | Test A Sinf (human RXFP1) [%] | pEC50 (human RXFP1) | Test B Human Plasma Protein Binding (% free) [2] [% free] | solubility (Solubility (Test F)) [µM] | microsomal CLint [3] [µL/min/mg] | hepatocyte CLint [4] [µL/min/1e6 cells] | hepatocyte CLint at 1 µM [5] [µL/min/1e6 cells] | Molecule | significant blood pressure drop ([1]; approximately one third of the patients, after receiving serelaxin intravenously) [mm Hg] | markers of cardiac, renal and hepatic damage and congestion ([1]; continuous intravenous administration to hospitalized patients) | clearance from the patients' circulation ([1]; patients, positive effects rapidly disappeared once intravenous injection stopped) | Test C Human Liver Microsomal Stability Clint ([3]; human liver microsomes) [µL/min/mg] | Test E Rat Hepatocyte Stability Clint ([4]; rat hepatocytes) [μL/min/10^6 cells] | Test D Human Hepatocyte Stability Clint ([5]; human hepatocytes) [μL/min/10^6 cells]
1 | – | – | – | – | – | – | – | serelaxin | > 40 | improved | rapid clearance | – | – | –
2 | 107 | 7.82 | 3.4 | 960 (≈ 579 µg/mL) | 18 | 7.1 | 3.1 | COc1cc(Cl)c(O[C@H]2CC[C@@](C)(C(=O)O)CC2)cc1C(=O)N[C@@H]1[C@H]2CC[C@H](C2)[C@@H]1C(=O)NCC(C)(C)C(F)(F)F [Example 409] | – | – | – | – | – | –
3 | 170 | 6.06 | 0.31 | 11 (≈ 7.11 µg/mL) | 5.5 | 9.1 | 5 | COc1cc(F)c(-c2cccc(CC(=O)O)c2)cc1C(=O)N[C@H]1[C@@H](C(=O)Nc2cccc(S(=O)(=O)C(F)(F)F)c2)[C@@H]2C=C[C@H]1C2 (racemic) [Example 281] | – | – | – | – | – | –
4 | 107 | 8.12 | 6.8 | 950 (≈ 559 µg/mL) | 35 | 28 | 22 | CC(C)Oc1cc(F)c(O[C@H]2CC[C@@](CO)(C(=O)O)CC2)cc1C(=O)N[C@@H]1[C@H]2CC[C@H](C2)[C@@H]1C(=O)NCC1(C)CCC1 [Example 486, (1S,4s)-4-(2-Fluoro-4-isopropoxy-5-(((1S,2R,3S,4R)-3-(((1-methylcyclobutyl)methyl)carbamoyl)bicyclo[2.2.1]heptan-2-yl)carbamoyl)phenoxy)-1-(hydroxymethyl)cyclohexane-1-carboxylic acid] | – | – | – | – | – | –
5 | 104 | 6.30 | 2.2 | 750 (≈ 431 µg/mL) | 32 | 130 | 11 | COc1cc(F)c(O[C@H]2CC[C@@H](C(=O)O)CC2)cc1C(=O)N[C@@H]1[C@H]2CC[C@H](C2)[C@@H]1C(=O)Nc1cccc(C(F)F)c1 [Example 10, (1S,4s)-4-(5-(((1S,2R,3S,4R)-3-((3-(Difluoromethyl)phenyl)carbamoyl)bicyclo[2.2.1]heptan-2-yl)carbamoyl)-2-fluoro-4-methoxyphenoxy)cyclohexane-1-carboxylic acid] | – | – | – | – | – | –
6 | 101 | 7.30 | 2.4 | 810 (≈ 453 µg/mL) | 120 | 13 | 12 | CCC1(CNC(=O)[C@H]2[C@@H]3CC[C@@H](C3)[C@H]2NC(=O)c2cc(O[C@H]3CC[C@@](C)(C(=O)O)CC3)c(F)cc2OC)CCC1 [Example 617] | – | – | – | – | – | –
7 | 107 | 6.92 | <0.26 | 2 (≈ 1.26 µg/mL) | 120 | 38 | 32 | COc1cc(F)c(-c2ccc(C(N)=O)cc2)cc1C(=O)N[C@H]1[C@@H](C(=O)Nc2cccc(S(=O)(=O)C(F)(F)F)c2)[C@@H]2C=C[C@H]1C2 [Example 270, 6-Fluoro-4-methoxy-N3-((1R,2R,3S,4S)-3-((3-((trifluoromethyl)sulfonyl)phenyl)carbamoyl)bicyclo[2.2.1]hept-5-en-2-yl)-[1,1′-biphenyl]-3,4′-dicarboxamide] | – | – | – | – | – | –
8 | 110 | 7.60 | 3.6 | 920 (≈ 621 µg/mL) | 16 | 23 | 6.2 | COc1cc(F)c(OC2CCC(C)(C(=O)O)CC2)cc1C(=O)NC1CC(OC)CC1C(=O)Nc1cccc(S(=O)(=O)C(F)(F)F)c1 (single isomer, unassigned) [Example 524, (1R,4s)-4-(2-Fluoro-4-methoxy-5-(((1S*,2R*,4R*)-4-methoxy-2-((3-((trifluoromethyl)sulfonyl)phenyl)carbamoyl)cyclopentyl)carbamoyl)phenoxy)-1-methylcyclohexane-1-carboxylic acid] | – | – | – | – | – | –
9 | 107 | 7.13 | 16 | 920 (≈ 493 µg/mL) | 8.3 | 17 | < 1 | COc1cc(C#N)c(O[C@H]2CC[C@@](C)(C(=O)O)CC2)cc1C(=O)N[C@@H]1[C@H]2CC[C@H](C2)[C@@H]1C(=O)NC12CC(C1)C2 [Example 141, (1S,4s)-4-(5-(((1S,2R,3S,4R)-3-(Bicyclo[1.1.1]pentan-1-ylcarbamoyl)-bicyclo[2.2.1]heptan-2-yl)carbamoyl)-2-cyano-4-methoxyphenoxy)-1-methylcyclohexane-1-carboxylic acid] | – | – | – | – | – | –
10 | 102 | 7.38 | 2.1 | 550 (≈ 361 µg/mL) | 42 | 23 | 15 | COc1cc(F)c(O[C@H]2CC[C@@H](C(=O)O)CC2)cc1C(=O)N[C@@H]1[C@H]2CC[C@H](C2)[C@@H]1C(=O)Nc1cccc(S(=O)(=O)C(F)(F)F)c1 [Example 491] | – | – | – | – | – | –

Row | Molecule | Test A Sinf (human RXFP1) [%] | pEC50 (human RXFP1) | Test B Human Plasma Protein Binding (% free) [2] [% free] | solubility (Solubility (Test F)) [µM] | microsomal CLint [3] [µL/min/mg] | hepatocyte CLint [4] [µL/min/1e6 cells] | hepatocyte CLint at 1 µM [5] [µL/min/1e6 cells] | significant blood pressure drop ([1]; approximately one third of the patients, after receiving serelaxin intravenously) [mm Hg] | markers of cardiac, renal and hepatic damage and congestion ([1]; continuous intravenous administration to hospitalized patients) | clearance from the patients' circulation ([1]; patients, positive effects rapidly disappeared once intravenous injection stopped) | Test C Human Liver Microsomal Stability Clint ([3]; human liver microsomes) [µL/min/mg] | Test E Rat Hepatocyte Stability Clint ([4]; rat hepatocytes) [μL/min/10^6 cells] | Test D Human Hepatocyte Stability Clint ([5]; human hepatocytes) [μL/min/10^6 cells]
11 | COc1cc(F)c(O[C@H]2CC[C@@](C)(C(=O)O)CC2)cc1C(=O)N[C@@H]1COCC[C@@H]1C(=O)Nc1cccc(S(=O)(=O)C(F)(F)F)c1 (relative stereo) [Example 559, (1R,4s)-4-(2-Fluoro-4-methoxy-5-(((3S*,4S*)-4-((3-((trifluoromethyl)sulfonyl)phenyl)carbamoyl)tetrahydro-2H-pyran-3-yl)carbamoyl)phenoxy)-1-methylcyclohexane-1-carboxylic acid] | 102 | 5.92 | 2.5 | 900 (≈ 595 µg/mL) | – | – | – | – | – | – | 9.4 | 8.4 | 4.1
